Tested on: MDA-MB-231 multicell spheroids, viability (%T/C)
Assay: Anticancer human tumor MDA-MB-231 cell line growth inhibition [IpAb];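 further: viability read after seven days of drug exposure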;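 on viability, T/C: 100% = DMSO vehicle control viability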
Conditions: for IC50: curve of first compound; for viability, T/C: stronger effect = lower value
Description: Combinatorial screen of targeted agents with ipatasertib and abemaciclib in multi-cell type tumor spheroids
A high-throughput screen of multi-cell type tumor spheroids was designed to identify active combinations of targeted small molecules and ipatasertib or abemaciclib. Complex spheroids include a stromal component modeled by human endothelial cells (HUVEC) and fibroblasts modeled by human mesenchymal stem cells (MSCs). The concentration ranges selected for each drug and investigational agent were based upon clinically achievable concentrations if the clinical Cmax of the agent was known.
Compounds. The drugs and investigational agents: ipatasertib (NSC767898), abemaciclib(NSC768073), selumetinib (NSC741078), trametinib (758246), adavosertib (NSC754352), everolimus (NSC733504), sapanisertib (NSC764658), vemurafenib (NSC761431), venetoclax (NSC766270), copanlisib (NSC809693), apelisib (NSC765974), palbociblib (NSC758247), vemurafenib (NSC761431), dabrafenib (NSC764134), ravoxertinib (NSC781343), BMS-387032 (NSC767048), sotorasib (NSC818433), talazoparib (NSC767125) and afursertib (NSC778305), were obtained from the National Cancer Institute (NCI) Developmental Therapeutics Program Chemical Repository. The FDA-approved anticancer drug set is available from the NCI Developmental Therapeutics Program. […] The stock solutions were prepared in dimethyl sulfoxide (DMSO, Sigma-Aldrich, St. Louis, MO, cat. D2650) at 800-fold the tested concentration and stored at -70 degrees C prior to their use. All drugs and investigational agents were tested over a range starting from a high concentration at or near the clinical Cmax and decreasing in half-log increments. If the clinical Cmax for an agent had not been determined, the highest concentration tested was 10 microM.
NCI60 Cell Culture. NCI60 cell lines were obtained from the NCI Developmental Therapeutics Program Tumor Repository. For each lot of cells, the Repository performed Applied Biosystems AmpFLSTR Identifiler testing with PCR amplification to confirm consistency with the published Identifier STR profile for each cell line. Cells were kept in continuous culture for no more than 20 passages. The optimal seeding densities for each of the cell lines at each time point assessed were determined prior to performing the concentration response studies. Briefly, the NCI60 human tumor lines were grown as monolayers in RPMI 1640 medium supplemented with 10% FBS and 2 mmol/L L-glutamine.
An additional 9 lines were from the NCI60 cell line panel including MDA-MB-231 breast carcinoma, MDA-MB-468 breast carcinoma, MCF7 breast carcinoma, Hs578T breast carcinoma, MALME-3M melanoma, SK-MEL-2 melanoma, SK-OV-3 ovarian carcinoma, DU-145 prostate carcinoma, PC-3 prostate carcinoma, all cell lines along with major genetic alterations are listed on Table 2. Pooled donor human umbilical vein endothelial cells (HUVEC, Lonza, cat. CC-2519) and human mesenchymal stem cells (hMSC, Lonza, cat. PT-2501) were purchased from Lonza (Walkersville, MD).
PDMR cell lines were grown in complete medium (DC medium): Dulbecco's modified Eagle's medium (DMEM)/F12 supplemented with 5% fetal bovine serum (FBS), 2 mM L-glutamine, 100 U/mL penicillin and 100 µg/ml streptomycin, 0.4 µg/ml hydrocortisone, 10 ng/ml epidermal growth factor (EGF) recombinant human protein, 24 µg/mL adenine, and 0.1 mg/mL primocin. During culture from frozen stock vials, PDMR cells were cultured in the same medium containing 10 µM Y-27632 (see Table 3). The PDCs were cultured in complete DMEM/F12 media without 10 microM Y-27632 dihydrochloride for at least two passages prior to the screen. The pooled donor HUVEC and hMSC were cultured in endothelial cell growth medium 2 (PromoCell, Heidelberg, Germany, cat. C-22011) and mesenchymal stem cell growth medium 2 (PromoCell, cat. C-28009), respectively. For all experiments, HUVEC and hMSC were used at passages </=5.
[…]

[1] = second compound 0.1 µM, first compound 0.0316 µM
[2] = second compound 0.1 µM, first compound 0.1 µM
[3] = second compound 0.1 µM, first compound 0.316 µM
[4] = second compound 0.1 µM, first compound 1 µM
[5] = second compound 0.1 µM, first compound 3.16 µM
[6] = second compound 0.1 µM, first compound 10 µM
[7] = second compound 0.316 µM, first compound 0.0316 µM
[8] = second compound 0.316 µM, first compound 0.1 µM
[9] = second compound 0.316 µM, first compound 0.316 µM
[10] = second compound 0.316 µM, first compound 1 µM
[11] = second compound 0.316 µM, first compound 3.16 µM
[12] = second compound 0.316 µM, first compound 10 µM
[13] = second compound 1 µM, first compound 0.0316 µM
[14] = second compound 1 µM, first compound 0.1 µM
[15] = second compound 1 µM, first compound 0.316 µM
[16] = second compound 1 µM, first compound 1 µM
[17] = second compound 1 µM, first compound 3.16 µM
[18] = second compound 1 µM, first compound 10 µM
[19] = second compound 3.16 µM, first compound 0.0316 µM
[20] = second compound 3.16 µM, first compound 0.1 µM
[21] = second compound 3.16 µM, first compound 0.316 µM
[22] = second compound 3.16 µM, first compound 1 µM
[23] = second compound 3.16 µM, first compound 3.16 µM
[24] = second compound 3.16 µM, first compound 10 µM
[25] = second compound 10 µM, first compound 0.0316 µM
[26] = second compound 10 µM, first compound 0.1 µM
[27] = second compound 10 µM, first compound 0.316 µM
[28] = second compound 10 µM, first compound 1 µM
[29] = second compound 10 µM, first compound 3.16 µM
[30] = second compound 10 µM, first compound 10 µM

Row | SMILES | IC50 (second compound 0.1 µM) [nM] | IC50 (second compound 0.316 µM) [nM] | IC50 (second compound 1 µM) [nM] | IC50 (second compound 3.16 µM) [nM] | IC50 (second compound 10 µM) [nM] | viability, T/C [1] [%] | viability, T/C [2] [%] | viability, T/C [3] [%] | viability, T/C [4] [%] | viability, T/C [5] [%] | viability, T/C [6] [%] | viability, T/C [7] [%] | viability, T/C [8] [%] | viability, T/C [9] [%] | viability, T/C [13] [%] | viability, T/C [14] [%] | viability, T/C [19] [%] | viability, T/C [20] [%] | viability, T/C [25] [%] | viability, T/C [26] [%] | also measured
1 | C=CCn1c(=O)c2cnc(Nc3ccc(N4CCN(C)CC4)cc3)nc2n1-c1cccc(C(C)(C)O)n1 + CC(C)NCC(C(=O)N1CCN(c2ncnc3c2C(C)CC3O)CC1)c1ccc(Cl)cc1 | 219 | 188 | 170 | 91.4 | < 31.6 | 93 | 86.6 | 32.9 | 17.8 | 16.4 | 20.5 | 92.5 | 74.4 | 30.1 | 76.7 | 68.4 | 60.6 | 48.8 | 44.6 | 32.5 | viability, T/C [10]: 17.3%; viability, T/C [11]: 15.3%; viability, T/C [12]: 19.6%; viability, T/C [15]: 28.3%; viability, T/C [16]: 16.7%; viability, T/C [17]: 15.5%; viability, T/C [18]: 17.4%; viability, T/C [21]: 26.2%; viability, T/C [22]: 15.1%; viability, T/C [23]: 14.6%; viability, T/C [24]: 16.9%; viability, T/C [27]: 21.2%; viability, T/C [28]: 15.3%; viability, T/C [29]: 15%; viability, T/C [30]: 16.6%
2 | CC(C)n1nc(-c2ccc3oc(N)nc3c2)c2c(N)ncnc21 + CC(C)NCC(C(=O)N1CCN(c2ncnc3c2C(C)CC3O)CC1)c1ccc(Cl)cc1 | 15.1 | 5.64 | 2.25 | 0.58 | < 0.316 | 42.5 | 40.5 | – | – | – | – | 38.6 | 35.4 | – | 31.7 | 29.8 | 26.1 | 23.3 | 15.2 | 14.6 | viability, T/C (second compound 0.1 µM, first compound 0.000316 µM): 90.9%; viability, T/C (second compound 0.1 µM, first compound 0.001 µM): 84%; viability, T/C (second compound 0.1 µM, first compound 0.00316 µM): 68.6%; viability, T/C (second compound 0.1 µM, first compound 0.01 µM): 54.5%; viability, T/C (second compound 0.316 µM, first compound 0.000316 µM): 86.8%; viability, T/C (second compound 0.316 µM, first compound 0.001 µM): 69.8%; viability, T/C (second compound 0.316 µM, first compound 0.00316 µM): 56.4%; viability, T/C (second compound 0.316 µM, first compound 0.01 µM): 43.8%; viability, T/C (second compound 1 µM, first compound 0.000316 µM): 67.4%; viability, T/C (second compound 1 µM, first compound 0.001 µM): 59%; viability, T/C (second compound 1 µM, first compound 0.00316 µM): 46.1%; viability, T/C (second compound 1 µM, first compound 0.01 µM): 36.5%; viability, T/C (second compound 3.16 µM, first compound 0.000316 µM): 53.3%; viability, T/C (second compound 3.16 µM, first compound 0.001 µM): 47%; viability, T/C (second compound 3.16 µM, first compound 0.00316 µM): 36.9%; viability, T/C (second compound 3.16 µM, first compound 0.01 µM): 28.3%; viability, T/C (second compound 10 µM, first compound 0.000316 µM): 38.3%; viability, T/C (second compound 10 µM, first compound 0.001 µM): 34.2%; viability, T/C (second compound 10 µM, first compound 0.00316 µM): 27.1%; viability, T/C (second compound 10 µM, first compound 0.01 µM): 18.1%
3 | CC1(C)CCC(CN2CCN(c3ccc(C(=O)NS(=O)(=O)c4ccc(NCC5CCOCC5)c([N+](=O)[O-])c4)c(Oc4cnc5[nH]ccc5c4)c3)CC2)=C(c2ccc(Cl)cc2)C1 + CC(C)NCC(C(=O)N1CCN(c2ncnc3c2C(C)CC3O)CC1)c1ccc(Cl)cc1 | 5990 | 5380 | 4750 | 3680 | < 31.6 | 99 | 96.8 | 103 | 95.9 | 96.9 | 12.4 | 86.2 | 88.3 | 93.7 | 75.9 | 79.4 | 60.8 | 57.2 | 39.8 | 43 | viability, T/C [10]: 94.5%; viability, T/C [11]: 86.1%; viability, T/C [12]: 7.75%; viability, T/C [15]: 75.4%; viability, T/C [16]: 77.7%; viability, T/C [17]: 71.2%; viability, T/C [18]: 10.9%; viability, T/C [21]: 59.4%; viability, T/C [22]: 60.1%; viability, T/C [23]: 56.5%; viability, T/C [24]: 7.09%; viability, T/C [27]: 40.5%; viability, T/C [28]: 39.4%; viability, T/C [29]: 36.4%; viability, T/C [30]: 4.22%
4 | CCCS(=O)(=O)Nc1ccc(F)c(C(=O)c2c[nH]c3ncc(-c4ccc(Cl)cc4)cc23)c1F + CC(C)NCC(C(=O)N1CCN(c2ncnc3c2C(C)CC3O)CC1)c1ccc(Cl)cc1 | 8310 | 6040 | 5310 | 1760 | < 31.6 | 106 | 106 | 104 | 97.2 | 75.4 | 45.1 | 98.1 | 95.9 | 92.2 | 80.1 | 84.8 | 59.3 | 68.2 | 45.4 | 48.2 | viability, T/C [10]: 87.3%; viability, T/C [11]: 61.2%; viability, T/C [12]: 41.1%; viability, T/C [15]: 79.8%; viability, T/C [16]: 71.3%; viability, T/C [17]: 60.1%; viability, T/C [18]: 38.3%; viability, T/C [21]: 61.7%; viability, T/C [22]: 56.7%; viability, T/C [23]: 42.9%; viability, T/C [24]: 30.9%; viability, T/C [27]: 44.2%; viability, T/C [28]: 36.6%; viability, T/C [29]: 35%; viability, T/C [30]: 27.6%

— PubChem BioAssay AID2060328 (Molecular Pharmacology Branch, DTP, NCI, 2025)
